Assay results: the supplement of paper PMC10307832

How the values were obtained:
Assay in all cases: relative viability (nuclei count vs DMSO), 5 days (fraction); higher = more cells survive
VX-702 + Phenformin = compound: NC(=O)c1ccc(N(C(N)=O)c2c(F)cccc2F)nc1-c1ccc(F)cc1F [VX-702] + N=C(N)NC(=N)NCCc1ccccc1 [Phenformin] (partner 250 µM)
In short: (§1)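 The day after seeding in 1536-well plates, lung cancer cell lines were treated by pin tool with a single drug, or with a fixed anchor-drug dose together with five library-drug doses (not always all listed) in √10 steps. After 5 days, a combined fix-and-stain solution (final 0.05% Triton X-100, 1% formaldehyde, 1 ug/ml Hoechst) was added. Nuclei counted on 4× images gave relative viability as treated counts over vehicle counts, reported as the median of duplicate plates.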

VX-702 + Foretinib = compound: NC(=O)c1ccc(N(C(N)=O)c2c(F)cccc2F)nc1-c1ccc(F)cc1F [VX-702] + COc1cc2c(Oc3ccc(NC(=O)C4(C(=O)Nc5ccc(F)cc5)CC4)cc3F)ccnc2cc1OCCCN1CCOCC1 [Foretinib] (partner 0.25 µM)
In short: as §1

Dabrafenib + Alpelisib = compound: CC(C)(C)c1nc(-c2cccc(NS(=O)(=O)c3c(F)cccc3F)c2F)c(-c2ccnc(N)n2)s1 [Dabrafenib] + Cc1nc(NC(=O)N2CCC[C@H]2C(N)=O)sc1-c1ccnc(C(C)(C)C(F)(F)F)c1 [Alpelisib] (partner 2 µM)
In short: as §1

Dabrafenib + Dasatinib = compound: CC(C)(C)c1nc(-c2cccc(NS(=O)(=O)c3c(F)cccc3F)c2F)c(-c2ccnc(N)n2)s1 [Dabrafenib] + Cc1nc(Nc2ncc(C(=O)Nc3c(C)cccc3Cl)s2)cc(N2CCN(CCO)CC2)n1 [Dasatinib] (partner 0.075 µM)
In short: as §1

Row | Cell Line | relative viability (VX-702 + Phenformin; first compound 0.02 µM) | relative viability (VX-702 + Phenformin; first compound 0.2 µM) | relative viability (VX-702 + Phenformin; first compound 0.6325 µM) | relative viability (VX-702 + Phenformin; first compound 2 µM) | relative viability (VX-702 + Foretinib; first compound 0.02 µM) | relative viability (VX-702 + Foretinib; first compound 0.2 µM) | relative viability (VX-702 + Foretinib; first compound 0.6325 µM) | relative viability (VX-702 + Foretinib; first compound 2 µM) | relative viability (Dabrafenib + Alpelisib; first compound 0.003 µM) | relative viability (Dabrafenib + Alpelisib; first compound 0.009487 µM) | relative viability (Dabrafenib + Alpelisib; first compound 0.03 µM) | relative viability (Dabrafenib + Alpelisib; first compound 0.09487 µM) | relative viability (Dabrafenib + Alpelisib; first compound 0.3 µM) | relative viability (Dabrafenib + Dasatinib; first compound 0.003 µM) | relative viability (Dabrafenib + Dasatinib; first compound 0.009487 µM) | relative viability (Dabrafenib + Dasatinib; first compound 0.03 µM) | relative viability (Dabrafenib + Dasatinib; first compound 0.09487 µM) | relative viability (Dabrafenib + Dasatinib; first compound 0.3 µM)
1 | UMC-11 | 0.34 | 0.346 | 0.301 | 0.363 | 0.988 | 0.843 | 0.893 | 1.21 | 1.08 | 1.01 | 1 | 0.937 | 0.935 | 0.43 | 0.462 | 0.41 | 0.446 | 0.501
2 | NCI-H1437 | 0.326 | 0.352 | 0.31 | 0.313 | 1.31 | 1.3 | 1.35 | 1.41 | 1.03 | 1 | 1.04 | 1.02 | 1.06 | 0.281 | 0.372 | 0.256 | 0.39 | 0.482
3 | EKVX | 0.235 | 0.189 | 0.224 | 0.214 | 0.754 | 0.432 | 0.49 | 0.685 | 0.923 | 1.05 | 0.889 | 0.682 | 1.07 |  | 0.585 | 0.522 | 0.533 | 0.628
4 | COR-L 105 | 0.529 | 0.478 | 0.448 | 0.459 | 1.02 | 0.838 | 1.14 | 1.3 | 0.829 | 1.08 | 1.16 | 1.13 | 1.14 | 0.316 | 0.39 | 0.366 | 0.373 | 0.368
5 | NCI-H650 | 0.515 |  | 0.44 | 0.524 | 1.01 |  | 1.11 | 1.25 |  | 1.09 | 0.953 | 0.906 | 0.706 |  | 0.332 | 0.402 | 0.314 | 0.294
6 | NCI-H2009 | 0.572 | 0.56 | 0.577 | 0.617 | 1.28 | 1.28 | 1.28 | 1.38 | 1.1 | 1.08 | 1.05 | 0.886 | 0.934 | 0.228 | 0.308 | 0.268 | 0.209 | 0.224
7 | LXF-289 | 0.538 | 0.534 | 0.5 | 0.527 | 1.04 | 0.962 | 0.958 | 0.98 | 1.02 | 1.03 | 1.02 | 0.991 | 1.06 | 0.175 | 0.2 | 0.211 | 0.195 | 0.192
8 | NCI-H647 | 0.487 | 0.654 | 0.46 | 0.728 | 1.22 | 1.08 | 1 | 1.4 |  | 1.09 | 1.12 | 0.945 | 1.03 | 0.0445 | 0.161 | 0.305 | 0.188 | 0.159
9 | NCI-H1666 | 0.562 |  | 0.563 | 0.633 | 0.992 |  | 1.02 | 1.06 | 0.988 |  | 0.962 | 0.973 | 1.11 | 0.84 | 0.775 | 0.798 | 0.809 | 0.822
10 | NCI-H1734 | 0.403 | 0.355 | 0.369 | 0.298 | 0.791 | 0.729 | 0.704 | 0.813 |  | 0.775 | 0.585 | 0.573 | 0.688 |  | 0.478 | 0.454 | 0.313 | 0.387
11 | BEN | 0.263 | 0.252 | 0.228 | 0.236 | 0.73 | 0.556 | 0.57 | 0.876 |  | 1.16 |  | 0.974 | 1.17 |  | 0.334 |  | 0.356 | 0.327
12 | PC-3 [JPC-3] | 0.484 | 0.491 | 0.457 | 0.464 | 1.11 | 1.02 | 1.1 | 1.05 | 1.01 | 0.996 | 1.02 | 0.907 | 0.956 | 0.882 | 1.06 | 0.925 | 0.881 | 1.03
13 | NCI-H2228 | 0.48 | 0.354 | 0.324 | 0.34 | 0.889 | 0.851 | 1.07 | 0.887 | 0.585 | 0.858 | 0.813 | 0.807 | 0.896 |  | 0.482 | 0.635 | 0.506 | 0.506
14 | HOP-62 | 0.809 | 0.656 | 0.698 | 0.708 | 1.18 | 1.19 | 1.25 | 1.33 |  | 1 | 0.734 | 0.902 | 0.771 | 0.509 | 0.738 | 0.588 | 0.603 | 0.539
15 | H3255 | 0.352 | 0.344 | 0.371 | 0.386 | 1.01 | 0.781 | 0.89 | 0.855 | 0.647 | 0.813 | 0.684 | 0.669 | 0.664 | 0.285 | 0.425 | 0.341 | 0.421 | 0.377
16 | 201T | 0.43 | 0.457 | 0.453 | 0.434 | 0.943 | 0.987 | 1.05 | 1.07 | 1.06 | 1.08 | 0.932 | 1.01 | 1.05 | 0.606 | 0.541 | 0.57 | 0.497 | 0.54
17 | HCC-44 | 0.191 | 0.286 | 0.191 | 0.225 |  |  |  |  | 0.751 | 0.792 | 0.789 | 0.732 | 0.807 |  |  |  |  | 
18 | ABC-1 | 0.214 | 0.201 | 0.229 | 0.228 | 1.24 | 0.968 | 0.859 | 1.33 |  | 0.934 | 1.14 | 1.13 | 1.28 | 0.64 | 0.531 |  | 0.58 | 0.799
19 | HARA | 0.433 | 0.42 | 0.599 | 0.569 | 0.852 | 0.763 | 0.908 | 0.814 | 0.669 | 0.89 | 0.646 | 0.732 | 1.09 | 0.242 | 0.346 |  | 0.294 | 0.264
